Where two headings read alike, the source gives them in different places.

The assay has as its target T1, PAR2 (Homo sapiens, UniProt P55085).
T1 construct: HEK293 cell lines derived from human embryonic kidney cultured in a MEM culture medium; endogenous in cells; host or cells: HEK293
T1 sequence (P55085 26-397): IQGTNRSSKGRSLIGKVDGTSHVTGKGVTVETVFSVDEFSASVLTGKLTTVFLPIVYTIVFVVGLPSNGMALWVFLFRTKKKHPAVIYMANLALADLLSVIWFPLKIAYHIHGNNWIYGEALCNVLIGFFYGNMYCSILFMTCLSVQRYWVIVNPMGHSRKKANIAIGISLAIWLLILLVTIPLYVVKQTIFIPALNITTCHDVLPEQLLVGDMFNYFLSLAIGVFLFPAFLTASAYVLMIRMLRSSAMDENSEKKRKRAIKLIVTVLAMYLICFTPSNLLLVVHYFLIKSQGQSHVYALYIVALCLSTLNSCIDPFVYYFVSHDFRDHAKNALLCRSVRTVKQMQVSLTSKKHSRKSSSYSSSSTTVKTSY
Briefly: Intracellular calcium concentration measurement (SLIGKV-NH2-induced calcium change, Fluo-8, FDSS/μCELL). The assay is classed as cell-based.

[1] abbreviates: HEK293 cells, SLIGKV-NH2 10 μM-induced intracellular calcium change, read-out: IC50.

Broadly, the IC50 is the point on the concentration scale where inhibition reaches its midpoint. For the molecule `CCCc1cc(CC2CCCCC2)nc2cc(C(=O)N3CCCCCC3)nn12` [Example 9, azepan-1-yl(5-(cyclohexylmethyl)-7-propylpyrazolo[1,5-a]pyrimidin-2-yl)methanone], the half-maximal inhibitory concentration (IC50) under setting [1] was 74 nM.

In the case of `Cc1cc(CC2CCC(C)CC2)nc2cc(C(=O)N3CCCCCC3)nn12` (stereo not drawn) [Example 20], the concentration for half-maximal inhibition (IC50) under setting [1] was 24 nM.

In the case of `CC1CCC(Cc2cc(C(C)C)n3nc(C(=O)N4CCCCCC4)cc3n2)CC1` (stereo not drawn) [Example 21], the half-maximal inhibitory concentration (IC50) under setting [1] worked out at 298 nM.

Regarding `CC(C)c1cc(C23CC4CC(CC(C4)C2)C3)nc2cc(C(=O)N3CCCCCC3)nn12` [Example 22], the IC50 under setting [1] is 137 nM.

As to `CC(C)(C)c1cc(C23CC4CC(CC(C4)C2)C3)nc2cc(C(=O)N3CCCCCC3)nn12` [Example 23], the half-inhibitory concentration (IC50) under setting [1] was 30 nM.

`CC1(C)CCCCN1C(=O)c1cc2nc(C34CC5CC(CC(C5)C3)C4)cc(C(F)(F)F)n2n1` [Example 24]: the IC50 under setting [1] was 9 nM.

Turning to `O=C(c1cc2nc(CC3CCCCC3)cc(C(F)(F)F)n2n1)N1CCCCCCC1` [Example 25], the IC50 under setting [1] came out at 49 nM.

Turning to `O=C(c1cc2nc(CC34CC5CC(CC(C5)C3)C4)cc(C(F)(F)F)n2n1)N1CCCCCC1` [Example 26], the IC50 under setting [1] is 80 nM.

With `O=C(c1cc2nc(CC3CCCCC3)cc(C(F)(F)F)n2n1)N1CCCCCCCC1` [Example 27], the concentration for half-maximal inhibition (IC50) under setting [1] turned out to be 138 nM.

As for `CC(C)(C)c1cc(CC2CCCCC2)nc2cc(C(=O)N3CCCCCC3)nn12` [Example 28, azepan-1-yl-[7-tert-butyl-5-(cyclohexylmethyl)pyrazolo[1,5-a]pyrimidin-2-yl]methanone], the concentration for half-maximal inhibition (IC50) under setting [1] turned out to be 60 nM.

As to `O=C(c1cc2nc(CC3CCCCC3)cc(C3CCCC3)n2n1)N1CCCCCC1` [Example 29], the IC50 under setting [1] was 467 nM.

On to `CC1(C)CCCCN1C(=O)c1cc2nc(CC3CCCC3)cc(C(F)(F)F)n2n1` [Example 30], for which the half-inhibitory concentration (IC50) under setting [1] came out at 102 nM.

For the molecule `CC1(C)CCCCN1C(=O)c1cc2nc(CC3CCCCC3)cc(C(F)(F)F)n2n1` [Example 31], the IC50 under setting [1] came to 81 nM.

As for `CCC(CC)c1cc(CC2CCCC2)nc2cc(C(=O)N3CCCCCC3)nn12` [Example 33], the IC50 under setting [1] came to 51 nM.

`CC(C)c1cc(C2CCCCC2)nc2cc(C(=O)N3CCCCCC3)nn12` [Example 34]: the IC50 under setting [1] worked out at 265 nM.

Regarding `CCc1cc(CC2CCCCC2)nc2cc(C(=O)N3CCCCC3(C)C)nn12` [Example 35], under setting [1], the IC50 stood at 130 nM.

As to `O=C(c1cc2nc(CC3CCCCC3)cc(C3CC3)n2n1)N1CCCCCC1` [Example 36], the IC50 under setting [1] is 369 nM.

On to `CCC(C)c1cc(CC2CCCC2)nc2cc(C(=O)N3CCCCCC3)nn12` (stereo not drawn) [Example 38], for which the concentration for half-maximal inhibition (IC50) under setting [1] is 102 nM.

Turning to `CC(C)c1cc(CC2CCCCC2)nc2cc(C(=O)N3CCCCC3(C)C)nn12` [Example 39], the IC50 under setting [1] was determined as 64 nM.

On to `CC(C)Cc1cc(CC2CCCCC2)nc2cc(C(=O)N3CCCCCC3)nn12` [Example 40], for which the IC50 under setting [1] was determined as 184 nM.

Take `O=C(c1cc2nc(CC3CCCC3)cc(C(F)(F)F)n2n1)N1CCCCCCCC1` [Example 41]: the IC50 under setting [1] came out at 246 nM.

Take `COC1CCN(C(=O)c2cc3nc(CC4CCCCC4)cc(C(C)C)n3n2)C(C)(C)C1` (stereo not drawn) [Example 42]: the IC50 under setting [1] worked out at 40 nM.

As to `CC(C)(C)c1cc(C2CCCCC2)nc2cc(C(=O)N3CCCCCC3)nn12` [Example 43], the IC50 under setting [1] was 185 nM.

Regarding `CCCCCc1cc(CC2CCCCC2)nc2cc(C(=O)N3CCCCCC3)nn12` [Example 44], the 50% inhibitory concentration (IC50) under setting [1] came to 208 nM.

For the molecule `CC(C)c1cc(CC2CCC2)nc2cc(C(=O)N3CCCCCC3)nn12` [Example 45], the half-inhibitory concentration (IC50) under setting [1] turned out to be 632 nM.

With `CC(C)c1cc(CC2CCCCCC2)nc2cc(C(=O)N3CCCCCC3)nn12` [Example 46], the IC50 under setting [1] worked out at 99 nM.

`CCC(C)c1cc(CC2CCCCC2)nc2cc(C(=O)N3CCCCCC3)nn12` (stereo not drawn) [Example 47]: the half-inhibitory concentration (IC50) under setting [1] came to 146 nM.

With `CCC(CC)c1cc(CC2CCCCC2)nc2cc(C(=O)N3CCCCCC3)nn12` [Example 48], the IC50 under setting [1] worked out at 105 nM.

For the molecule `CC(C)c1cc(CC2CCCCCC2)nc2cc(C(=O)N3CCCCC3(C)C)nn12` [Example 49], under setting [1], the IC50 stood at 119 nM.

Regarding `CC(C)c1cc(CC2CCCCC2)nc2cc(C(=O)N3CCSCC3(C)C)nn12` [Example 50], under setting [1], the concentration for half-maximal inhibition (IC50) was determined as 43 nM.

In the case of `CC(C)c1cc(CC2CCCC2)nc2cc(C(=O)N3CCCCCCC3)nn12` [Example 51], the IC50 under setting [1] was 209 nM.

Turning to `CC(C)c1cc(CC2CCCCC2)nc2cc(C(=O)N3CCCCCCC3)nn12` [Example 52], under setting [1], the concentration for half-maximal inhibition (IC50) worked out at 107 nM.

Turning to `O=C(c1cc2nc(C3CCC(F)(F)CC3)cc(C(F)(F)F)n2n1)N1CCCCCC1` [Example 56], the IC50 under setting [1] stood at 283 nM.

Turning to `CC1(c2cc(C(F)(F)F)n3nc(C(=O)N4CCCCCC4)cc3n2)CCCCC1` [Example 57], under setting [1], the IC50 came to 308 nM.

Turning to `CCCCC1CCC(c2cc(C(F)(F)F)n3nc(C(=O)N4CCCCCC4)cc3n2)CC1` (stereo not drawn) [Example 58], the IC50 under setting [1] turned out to be 464 nM.

For the molecule `O=C(c1cc2nc(C3CCCCCC3)cc(C(F)(F)F)n2n1)N1CCCCCC1` [Example 60], under setting [1], the IC50 stood at 234 nM.

In the case of `CC1(C)CCCCCN1C(=O)c1cc2nc(C34CC5CC(CC(C5)C3)C4)cc(C(F)(F)F)n2n1` [Example 61], the 50% inhibitory concentration (IC50) under setting [1] turned out to be 96 nM.

With `CC1(C)COCCN1C(=O)c1cc2nc(C34CC5CC(CC(C5)C3)C4)cc(C(F)(F)F)n2n1` [Example 62], the IC50 under setting [1] turned out to be 52 nM.

Consider `COC1CCN(C(=O)c2cc3nc(C45CC6CC(CC(C6)C4)C5)cc(C(F)(F)F)n3n2)C(C)(C)C1` (stereo not drawn) [Example 63], for which the IC50 under setting [1] came to 12 nM.

Regarding `CC(C)c1cc(C23CC4CC(CC(C4)C2)C3)nc2cc(C(=O)N3CCC(O)CC3(C)C)nn12` (stereo not drawn) [Example 64], the IC50 under setting [1] turned out to be 17 nM.

Turning to `CC1(C)COCCN1C(=O)c1cc2nc(CC3CCCCC3)cc(C(F)(F)F)n2n1` [Example 66], under setting [1], the IC50 is 241 nM.

`CC1(C)CSCCN1C(=O)c1cc2nc(C3CCCC3)cc(C(F)(F)F)n2n1` [Example 67]: under setting [1], the IC50 was found to be 174 nM.

Turning to `CCC(CC)c1cc(CC2CCCC2)nc2cc(C(=O)N3CCCC(=O)C3(C)C)nn12` [Example 68], the IC50 under setting [1] worked out at 15 nM.

With `CCCCCCc1cc(CC2CCCCC2)nc2cc(C(=O)N3CCCCCC3)nn12` [Example 69], under setting [1], the half-inhibitory concentration (IC50) stood at 286 nM.

`CCC(CC)c1cc(CC2CCCCC2)nc2cc(C(=O)N3CCC(O)CC3(C)C)nn12` (stereo not drawn) [Example 73]: the IC50 under setting [1] worked out at 33 nM.

On to `CC(C)c1cc(CCC2CCCCC2)nc2cc(C(=O)N3CCSCC3(C)C)nn12` [Example 74], for which the half-maximal inhibitory concentration (IC50) under setting [1] stood at 386 nM.

For `CCC(C)c1cc(CC2CCCC2)nc2cc(C(=O)N3CCCCC3(C)C)nn12` (stereo not drawn) [Example 75], the IC50 under setting [1] turned out to be 89 nM.

On to `CC(C)c1cc(CC2CCCCC2)nc2cc(C(=O)N3CCOCC3(C)C)nn12` [Example 76], for which the half-maximal inhibitory concentration (IC50) under setting [1] amounted to 121 nM.

For the molecule `CC(F)(F)c1cc(CC2CCCCC2)nc2cc(C(=O)N3CCCCCC3)nn12` [Example 77], under setting [1], the IC50 came out at 273 nM.

In the case of `CCC(C)c1cc(CC2CCCC2)nc2cc(C(=O)N3CCCCCCC3)nn12` (stereo not drawn) [Example 78], the concentration for half-maximal inhibition (IC50) under setting [1] is 247 nM.

With `CCC(CC)c1cc(CC2CCCC2)nc2cc(C(=O)N3CCCCCCC3)nn12` [Example 79], under setting [1], the IC50 was determined as 145 nM.

Regarding `CC(C)c1cc(CC2CCCC2)nc2cc(C(=O)N3CCC=CCC3)nn12` [Example 80], the IC50 under setting [1] came out at 250 nM.

Regarding `CC(C)c1cc(CC2CCCCC2)nc2cc(C(=O)N3CCC=CCC3)nn12` [Example 81], the IC50 under setting [1] came out at 246 nM.

For `O=C(c1cc2nc(NC34CC5CC(CC(C5)C3)C4)cc(C(F)(F)F)n2n1)N1CCCCCC1` [Example 82], under “IC50 (nM)”, the IC50 came out at 76 nM.

The record behind these values is patent publication US20240376109A1, “PYRAZOLO[1,5-A]PYRIMIDINE COMPOUND FOR THE TREATMENT OF DERMAL DISORDERS” (OTSUKA PHARMACEUTICAL CO., LTD., priority 2021, published 2024).
